Laboratory results as given in ChEMBL document CHEMBL5608162, “Design, synthesis and biological evaluation of 6-chloro-quinolin-2-one derivatives as novel FXIa inhibitors” (Bioorg Med Chem Lett, 2024).
Values after ≈ are worked out from the molar mass of the structure shown.

Assays:
[1] = Volume of distribution at steady state in iv dosed rat; assay type: ADME, organism-based; conditions: in vivo, read-out: Vdss
[2] = AUC in iv dosed rat; assay type: ADME, organism-based; conditions: in vivo
[3] = Cmax in iv dosed rat; assay type: ADME, organism-based; conditions: in vivo
[4] = Half life in iv dosed rat; assay type: ADME, organism-based; conditions: in vivo
[5] = Solubility of compound at pH 8; assay type: physicochemical; conditions: buffer
[6] = Tmax in iv dosed rat; assay type: ADME, organism-based; conditions: in vivo

Description for Plasma: Anticoagulation activity in plasma (unknown origin) assessed as concentration required for twice the activated partial thromboplastin time

SMILES	2aPTT (Plasma) [µM]	further results
CC[C@@H](C(=O)Nc1ccc(C(N)=O)c(F)c1)n1cc(OC)c(-c2cc(Cl)ccc2-n2cc(C(F)(F)F)nn2)cc1=O	3.8	
CN(Cc1cc(=O)[nH]c2ccc(Cl)cc12)C(=O)[C@H](Cc1ccc(NC(=O)C2CCCC2)cc1)NC(=O)c1ccc(C(=O)O)s1	11.2	
CC1CC1C(=O)Nc1ccc(C[C@H](NC(=O)c2ccc(C(=O)O)s2)C(=O)N(C)Cc2cc(=O)[nH]c3ccc(Cl)cc23)cc1 (stereo not given in full)	6.8	Vd [1]: 40 L/kg; AUC [2]: 313 ng·h/mL; Cmax [3]: 2120 ng/mL; half-life [4]: 48.6 min; solubility [5]: Soluble; Tmax [6]: 1.2 min
CN(Cc1cc(=O)[nH]c2ccc(Cl)cc12)C(=O)[C@H](Cc1ccc(NC(=O)C2CCCCC2)cc1)NC(=O)c1ccc(C(=O)O)s1	14	
CN(Cc1cc(=O)[nH]c2ccc(Cl)cc12)C(=O)[C@H](Cc1ccc(NC(=O)C2CC2)cc1)NC(=O)c1ccc(C(=O)O)s1	6.9	
COC(=O)Nc1ccc(C(=O)N[C@@H](Cc2ccccc2)C(=O)N(C)Cc2cc(=O)[nH]c3ccc(Cl)cc23)cc1	16.7	solubility ([5]; read-out: solubility): 17.3 µg/mL (≈ 31.6 µM)
CN(Cc1cc(=O)[nH]c2ccc(Cl)cc12)C(=O)[C@H](Cc1ccc(NC(=O)C2CC2(C)C)cc1)NC(=O)c1ccc(C(=O)O)s1 (stereo not given in full)	9.8	
CN(Cc1cc(=O)[nH]c2ccc(Cl)cc12)C(=O)[C@H](Cc1ccc(NC(=O)C2CCC2)cc1)NC(=O)c1ccc(C(=O)O)s1	13.3	
